Assay results reported in patent US11213536B2, “Acylated compounds for the treatment of ocular pathologies” (CONSEJO SUPERIOR DE INVESTIGACIONES CIENTÍFICAS, priority 2016, dated 2022).
Entries after “also recorded” stand apart in the source; their conditions may differ.

What was measured:
[1] = system: zebrafish larva (Danio rerio); experiment: Neuroprotection in PTZ-induced neurotoxicity model, AChE activity in zebrafish larvae; type: in vivo; details: 5 dpf larvae, 10 μM, 5 mM PTZ for 6 hours
Protocol: The objective of this assay was to analyze the protective effect of compound 2 and of the resveratrol (RES) control in a model of neurotoxicity induced by the neurotoxin pentylenetetrazole (PTZ). As an experimental model, the zebrafish larva (Danio rerio) was used to study the effect of the compounds on acetylcholinesterase activity (AChE) in larvae at 5 days post-fertilization (dpf).
Zebrafish embryos were seeded in 50 ml of dilution water (AD) in a Petri dish and grown to 5 dpf (larval stage). […] Next, the larvae were transferred using a Pasteur pipette to a 24-well microplate, so that each well contained five larvae, making ten replicates per condition. First, the pre-treatment of the 5 dpf larvae was performed. […] After this incubation period, all of the larvae were examined, and it was determined that the general state of the larvae was totally normal, without any visible anomaly or anomalous behavior. […]
Determination of AChE levels. […] In addition, the determination of total protein of each experimental group was carried out according to the technical study protocol (Quantification of protein by BCA, as a normalization process). Finally, the AChE levels determined in the control group were taken as a reference measurement and deemed to be 100%.

rd10 mouse = experiment: rd10 mice retinal degeneration model, subretinal injection; type: in vivo; details: 5 mM subretinal
Text: The rd10 mouse is a model of retinitis pigmentosa due to a mutation in the Pde6b gene that results in the degeneration of the photoreceptors that begins on postnatal day 15-16 (P15-16) and is completed within one month (P30). In this model, the degeneration begins in the rods and then continues with cones and finally the retinal pigment epithelium (RPE). The degeneration in this model occurs as a consequence of the loss of the function of Pde6b, which ultimately leads to a continuous entry of Ca^++ in the […] with a significant production of reactive oxygen species (ROS), infiltration of macrophages, and activation of pro-apoptotic proteins. At the histological level, a loss of nuclei is observed in the outer nuclear layer of the retina (the layer in which photoreceptor nuclei are located), as well as the loss of the specific markers of rods (rhodopsin) and cones (opsin). The electroretinogram (ERG), which measures the electrical response of the retina to visual stimuli, is markedly affected in rd10 mice, with progressive loss of the amplitude of the a- and b-waves of the ERG. […] To evaluate the protective effect of our compounds on the retina, we first used the rd10 model. Rd10 homozygous mice were injected in the subretinal space at P13 (two to three days before the onset of degeneration) with 1 μl of vehicle (5% DMSO in PBS) or resveratrol RES (5 mM), as well as compound 2 (5 mM). Then, 15 days after having been injected, fundus, ERG, and histological changes were evaluated in the untreated mice, those treated with the vehicle, and those treated with RES and compound 2. […] The ERG in the treated mice was also evaluated 15 days after the injections. The amplitude of the a- and b-waves in the ERGs were quantified, and the statistical analysis was performed using two-way ANOVA and post hoc DMS. A value of p<0.05 was considered significant. […] Finally, the immunofluorescence study was performed in order to observe the presence of markers of rods (rhodopsin) and cones (opsin) (FIG. 10). The number of photoreceptor nuclei present in the outer nuclear layer (ONL), as well as the immunostaining of rhodopsin, was much greater in rd10 mice treated with compound 2 than in those treated with RES and in the controls.

RAW 264.7 macrophages = experiment: Mitigation of LPS damage: RAW 264.7 macrophage viability (MTT); type: cell-based; details: LPS 100 ng/ml, RES 10 μM, MTT 24 h
Protocol: RAW 264.7 macrophages were cultured in P75 with high-glucose DMEm supplemented with penicillin/streptomycin and 10% inactivated fetal bovine serum.
The cell viability assays with RAW macrophages were prepared in 96-well plates by seeding 25,000 cells/well in a volume of 100 μl and incubating the cells for 4 h before the addition of the compounds. The compounds to be tested were dissolved in DMSO and added in three different concentrations (1, 10 and 100 μM) in order to determine their toxicity. The final percentage of DMSO in each well was adjusted to 1%. The cell viability was evaluated 24 h after the addition of the compounds by means of the MTT assay according to the manufacturer's method. Mean values and standard deviations were calculated from at least 8 different measurements from several independent experiments.
Testing of mitigation of damage caused by the addition of LPS. The RAW 264.7 macrophages were cultured according to the procedure described above. […] The cell viability was evaluated 24 h after the addition of the compounds by means of the MTT assay according to the manufacturer's method. Mean values and standard deviations were calculated from at least 8 different measurements from several independent experiments.

SMILES	AChE activity decrease induced by PTZ [1]	amplitude of the a- and b-waves in ERG (rd10 mouse; 15 days)	thickness of the outer nuclear layer (ONL) (rd10 mouse; 15 days)	pigment accumulation in the fundus (rd10 mouse; 15 days after injection)	b-wave amplitude in dark-adapted ERG (rd10 mouse; 15 days, flash intensities 0.2, 1, 3 and 10 cd s/m^2)	labeling of rhodopsin and opsin (rd10 mouse; 15 days, immunofluorescence)	number of photoreceptor nuclei in the outer nuclear layer (ONL) and immunostaining of rhodopsin (rd10 mouse; 15 days, immunofluorescence)	recovery of cell viability (RAW 264.7 macrophages)
CCCCCCCC(=O)OCC1OC(Oc2cc(O)cc(/C=C/c3ccc(O)cc3)c2)C(O)C(O)C1O [Compound 2, trans-resveratrol-3-O-(6′-O-octanoyl)-β-D-glucopyranoside]	significantly prevents the decrease in AChE activity	preserved in the group treated with compound 2 in a greater proportion	greater than in the group treated with RES	absence of pigment; also recorded: lower amount of pigment accumulation	significantly increased; also recorded: significant increase	more intense	much greater	–
Oc1ccc(C=Cc2cc(O)cc(O)c2)cc1 [RES, resveratrol, reference compound]	–	–	–	–	–	–	–	up to 82%
